Source: publication PMC10882719 (Frontiers in Neuroscience, 2024)
Read-outs that look alike come from different tables or passages of the source.

Experiments:
Format in all cases: cell-based
[1] = biological target: T1, 168 GPCRs (Homo sapiens, UniProt P41145); settings: OPRK1
T1 construct: host or cells: PathHunter cell lines

[2] = biological target: T2, 168 GPCRs (Homo sapiens, UniProt P21452); settings: TACR2
T2 construct: host or cells: PathHunter cell lines
T2 sequence (P21452 1-398): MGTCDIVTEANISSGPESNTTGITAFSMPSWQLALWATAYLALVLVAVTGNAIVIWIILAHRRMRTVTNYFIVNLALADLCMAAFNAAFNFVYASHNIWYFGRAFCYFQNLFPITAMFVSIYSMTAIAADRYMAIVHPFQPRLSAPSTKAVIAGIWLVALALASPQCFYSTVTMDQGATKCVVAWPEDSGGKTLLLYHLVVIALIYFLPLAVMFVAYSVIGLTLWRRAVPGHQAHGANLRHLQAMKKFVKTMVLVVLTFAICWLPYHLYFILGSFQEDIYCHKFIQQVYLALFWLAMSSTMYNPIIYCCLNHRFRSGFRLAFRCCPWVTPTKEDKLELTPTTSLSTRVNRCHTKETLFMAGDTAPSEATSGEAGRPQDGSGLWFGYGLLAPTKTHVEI

[3] = biological target: T3, 168 GPCRs (Homo sapiens, UniProt Q16602)
T3 construct: host or cells: PathHunter cell lines
T3 sequence (Q16602 23-461): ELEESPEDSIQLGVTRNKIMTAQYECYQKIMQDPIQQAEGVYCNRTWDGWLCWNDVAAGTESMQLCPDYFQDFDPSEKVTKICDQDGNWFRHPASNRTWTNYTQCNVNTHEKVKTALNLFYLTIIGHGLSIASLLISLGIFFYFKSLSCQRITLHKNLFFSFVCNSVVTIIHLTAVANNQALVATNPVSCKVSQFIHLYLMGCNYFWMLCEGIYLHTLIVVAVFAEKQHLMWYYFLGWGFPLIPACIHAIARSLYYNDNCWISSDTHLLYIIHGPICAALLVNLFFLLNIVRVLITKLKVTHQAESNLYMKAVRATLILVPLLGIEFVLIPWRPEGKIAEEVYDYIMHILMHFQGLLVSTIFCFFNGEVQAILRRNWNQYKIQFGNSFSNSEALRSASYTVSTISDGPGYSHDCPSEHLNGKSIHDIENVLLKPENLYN

[4] = biological target: T4, 168 GPCRs (Homo sapiens, UniProt P41146); settings: OPRL1
T4 construct: host or cells: PathHunter cell lines
T4 sequence (P41146 whole entry): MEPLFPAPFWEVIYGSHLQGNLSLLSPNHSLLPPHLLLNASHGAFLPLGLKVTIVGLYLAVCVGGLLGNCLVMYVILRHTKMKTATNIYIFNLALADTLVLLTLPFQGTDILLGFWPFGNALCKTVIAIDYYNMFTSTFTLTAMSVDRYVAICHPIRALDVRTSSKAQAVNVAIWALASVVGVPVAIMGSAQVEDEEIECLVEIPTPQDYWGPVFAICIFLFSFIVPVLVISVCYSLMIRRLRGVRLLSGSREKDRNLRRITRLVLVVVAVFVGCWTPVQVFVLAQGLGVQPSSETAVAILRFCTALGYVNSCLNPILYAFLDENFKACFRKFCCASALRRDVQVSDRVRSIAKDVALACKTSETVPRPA

[5] = biological target: T5, 168 GPCRs (Homo sapiens, UniProt P25929); settings: NPY1R
T5 construct: host or cells: PathHunter cell lines
T5 sequence (P25929 1-384): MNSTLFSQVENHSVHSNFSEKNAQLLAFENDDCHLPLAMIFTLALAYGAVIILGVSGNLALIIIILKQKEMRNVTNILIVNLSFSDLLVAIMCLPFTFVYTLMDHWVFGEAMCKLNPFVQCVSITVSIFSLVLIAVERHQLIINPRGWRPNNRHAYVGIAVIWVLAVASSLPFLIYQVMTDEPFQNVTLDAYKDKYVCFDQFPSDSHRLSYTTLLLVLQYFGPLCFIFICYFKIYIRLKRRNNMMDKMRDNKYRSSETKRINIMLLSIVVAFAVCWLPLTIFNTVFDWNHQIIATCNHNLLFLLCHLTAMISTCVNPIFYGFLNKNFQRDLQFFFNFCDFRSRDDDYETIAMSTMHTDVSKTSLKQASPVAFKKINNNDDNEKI

[6] = biological target: T6, 168 GPCRs (Homo sapiens, UniProt P28566); settings: HTR1E
T6 construct: host or cells: PathHunter cell lines
T6 sequence (P28566 whole entry): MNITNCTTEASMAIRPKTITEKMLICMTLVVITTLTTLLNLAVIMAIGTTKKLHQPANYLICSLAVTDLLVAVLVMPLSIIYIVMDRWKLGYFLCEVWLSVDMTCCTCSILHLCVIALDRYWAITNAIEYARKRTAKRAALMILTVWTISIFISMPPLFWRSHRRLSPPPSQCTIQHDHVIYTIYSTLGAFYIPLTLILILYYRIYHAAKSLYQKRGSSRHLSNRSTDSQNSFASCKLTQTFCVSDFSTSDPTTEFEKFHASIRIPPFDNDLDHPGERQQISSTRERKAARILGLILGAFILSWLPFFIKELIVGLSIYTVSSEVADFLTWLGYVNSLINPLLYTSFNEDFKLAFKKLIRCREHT

[7] = biological target: T7, 168 GPCRs (Homo sapiens, UniProt P35414)
T7 construct: host or cells: PathHunter cell lines
T7 sequence (P35414 1-380): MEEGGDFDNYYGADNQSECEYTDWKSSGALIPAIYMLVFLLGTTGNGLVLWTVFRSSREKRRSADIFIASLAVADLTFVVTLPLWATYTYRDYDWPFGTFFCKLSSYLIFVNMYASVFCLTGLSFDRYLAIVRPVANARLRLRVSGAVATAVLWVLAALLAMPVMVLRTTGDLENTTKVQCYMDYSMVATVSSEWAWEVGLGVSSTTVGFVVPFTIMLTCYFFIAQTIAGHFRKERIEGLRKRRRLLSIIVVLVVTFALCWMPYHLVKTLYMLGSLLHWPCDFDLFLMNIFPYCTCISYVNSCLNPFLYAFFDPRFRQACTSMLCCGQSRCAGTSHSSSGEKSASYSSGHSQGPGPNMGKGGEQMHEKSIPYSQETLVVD

[8] = biological target: T8, 168 GPCRs (Homo sapiens, UniProt P43088); settings: PTGFR
T8 construct: host or cells: PathHunter cell lines
T8 sequence (P43088 whole entry): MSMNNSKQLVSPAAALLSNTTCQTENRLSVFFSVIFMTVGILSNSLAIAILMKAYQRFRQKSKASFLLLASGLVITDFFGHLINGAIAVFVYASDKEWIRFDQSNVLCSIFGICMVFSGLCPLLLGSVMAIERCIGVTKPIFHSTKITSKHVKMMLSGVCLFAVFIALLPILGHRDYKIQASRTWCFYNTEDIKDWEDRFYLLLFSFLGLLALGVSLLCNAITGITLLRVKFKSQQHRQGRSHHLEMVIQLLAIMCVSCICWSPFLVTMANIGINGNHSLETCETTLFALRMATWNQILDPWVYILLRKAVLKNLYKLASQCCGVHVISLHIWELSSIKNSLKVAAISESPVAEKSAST

T1 sequence (P41145 whole entry): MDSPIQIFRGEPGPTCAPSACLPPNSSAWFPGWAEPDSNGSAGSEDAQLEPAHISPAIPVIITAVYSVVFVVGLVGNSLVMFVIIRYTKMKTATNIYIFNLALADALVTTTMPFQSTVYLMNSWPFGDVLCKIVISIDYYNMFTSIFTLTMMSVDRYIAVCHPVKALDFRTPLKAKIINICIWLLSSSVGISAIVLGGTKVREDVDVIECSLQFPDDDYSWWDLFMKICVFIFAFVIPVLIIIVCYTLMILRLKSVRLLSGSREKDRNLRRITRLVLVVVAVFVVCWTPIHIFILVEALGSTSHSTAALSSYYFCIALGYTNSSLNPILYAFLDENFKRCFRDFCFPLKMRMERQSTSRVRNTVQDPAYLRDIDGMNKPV

Structure (SMILES)	% Agonist Activity ([1]; Conc 1 uM) [%]	% Antagonist Activity ([1]; Conc 1 uM) [%]	% Agonist Activity ([1]; Conc 10 uM) [%]	% Antagonist Activity ([1]; Conc 10 uM) [%]	% Agonist Activity ([2]; Conc 1 uM) [%]	% Antagonist Activity ([2]; Conc 1 uM) [%]	% Agonist Activity ([2]; Conc 10 uM) [%]	% Antagonist Activity ([2]; Conc 10 uM) [%]	% Agonist Activity ([3]; CALCRL-RAMP1, 1 uM) [%]	% Antagonist Activity ([3]; CALCRL-RAMP1, 1 uM) [%]	% Agonist Activity ([3]; CALCRL-RAMP1, 10 uM) [%]	% Antagonist Activity ([3]; CALCRL-RAMP1, 10 uM) [%]	% Agonist Activity ([3]; CALCRL-RAMP2, 1 uM) [%]	% Antagonist Activity ([3]; CALCRL-RAMP2, 1 uM) [%]	% Agonist Activity ([3]; CALCRL-RAMP2, 10 uM) [%]	% Antagonist Activity ([3]; CALCRL-RAMP2, 10 uM) [%]	% Agonist Activity ([3]; CALCRL-RAMP3, 1 uM) [%]	% Antagonist Activity ([3]; CALCRL-RAMP3, 1 uM) [%]	% Agonist Activity ([3]; CALCRL-RAMP3, 10 uM) [%]	% Antagonist Activity ([3]; CALCRL-RAMP3, 10 uM) [%]	also measured
CNC(C)Cc1ccc2c(c1)OCO2 (centres unmarked) [MDMA, 3,4-Methylenedioxy methamphetamine, reference compound]	1.7	16.7	0.5	18.1	0.1	12.5	-0.1	10.7	0.3	6.8	-0.6	8.1	-1	28.7	0.9	30.8	-0.9	-8.1	-1.4	-13	% Agonist Activity ([4]; Conc 1 uM): 0.5%; % Antagonist Activity ([4]; Conc 1 uM): -6.7%; % Agonist Activity ([4]; Conc 10 uM): -0.4%; % Antagonist Activity ([4]; Conc 10 uM): -3.2%; % Agonist Activity ([5]; Conc 1 uM): 1.3%; % Antagonist Activity ([5]; Conc 1 uM): -3.9%; % Agonist Activity ([5]; Conc 10 uM): 0.6%; % Antagonist Activity ([5]; Conc 10 uM): 2.2%; % Agonist Activity ([6]; 1 uM): 1.9%; % Antagonist Activity ([6]; 1 uM): 18%; % Agonist Activity ([6]; 10 uM): 1.1%; % Antagonist Activity ([6]; 10 uM): 12.7%; % Agonist Activity ([7]; AGTRL1, 1 uM): -0.8%; % Antagonist Activity ([7]; AGTRL1, 1 uM): -13.4%; % Agonist Activity ([7]; AGTRL1, 10 uM): -0.2%; % Antagonist Activity ([7]; AGTRL1, 10 uM): -8.4%; % Agonist Activity ([8]; Conc 1 uM): -1.5%; % Antagonist Activity ([8]; Conc 1 uM): -1.5%; % Agonist Activity ([8]; Conc 10 uM): -0.4%; % Antagonist Activity ([8]; Conc 10 uM): 7.8%
CNC(C)C(=O)c1ccc2c(c1)OCO2 (centres unmarked) [methylone]	-6.3	11.8	-4.1	10.4	-1.9	10	-3.3	9.1	-2.6	4.7	-0.2	7	0.1	19.1	2.8	7	-2.2	-18.5	-2.2	-7.5	% Agonist Activity ([4]; Conc 1 uM): -1.6%; % Antagonist Activity ([4]; Conc 1 uM): 17.1%; % Agonist Activity ([4]; Conc 10 uM): -2.3%; % Antagonist Activity ([4]; Conc 10 uM): 13.2%; % Agonist Activity ([5]; Conc 1 uM): -2.2%; % Antagonist Activity ([5]; Conc 1 uM): 0.2%; % Agonist Activity ([5]; Conc 10 uM): -4.9%; % Antagonist Activity ([5]; Conc 10 uM): 5.4%; % Agonist Activity ([6]; 1 uM): -3.5%; % Antagonist Activity ([6]; 1 uM): 7.6%; % Agonist Activity ([6]; 10 uM): 0.2%; % Antagonist Activity ([6]; 10 uM): 13.2%; % Agonist Activity ([7]; AGTRL1, 1 uM): -0.9%; % Antagonist Activity ([7]; AGTRL1, 1 uM): -3.3%; % Agonist Activity ([7]; AGTRL1, 10 uM): -1.5%; % Antagonist Activity ([7]; AGTRL1, 10 uM): -4.1%; % Agonist Activity ([8]; Conc 1 uM): 0.3%; % Antagonist Activity ([8]; Conc 1 uM): 0.9%; % Agonist Activity ([8]; Conc 10 uM): -0.2%; % Antagonist Activity ([8]; Conc 10 uM): 0%
